Experimental data taken from US10995068B2, “Synthetic sphingolipid-like molecules, drugs, methods of their synthesis and methods of treatment” (The Regents of the University of California, priority 2015, dated 2021).

What was measured:
[1] = system: murine hematopoietic cell line FL5.12; experiment: Viability of FL5.12 cells by vital dye exclusion; type: cell-based; conditions: Mus musculus; FL5.12 cells, 48 h, vital dye exclusion; n ≥3; read-out: IC50 (μM) [95% CI]
Description: Cell culture studies: FL5.12 cells (murine hematopoetic cells originally obtained from Craig Thompson, Memorial Sloan Kettering Cancer Center) were maintained at 0.1-0.5 million/ml in RPMI 1640 (Mediatech) supplemented with 10% fetal calf serum (FCS, Sigma-Aldrich), 10 mM Hepes (Mediatech), 500 pg/ml recombinant IL-3 (cat #575502, Biolegend), 55 μM β-mercaptoethanol (Sigma-Aldrich), 2 mM L-glutamine (Mediatech), and antibiotics. Cells were screened for Mycoplasma every 3 months using the Look-Out Mycoplasma PCR Detection kit (cat #MP0035, Sigma).
IC50 values were calculated using GraphPad Prism (GraphPad Software, Inc, La Jolla, Calif.).

[2] = system: luciferase-expressing SW620 xenografts; experiment: Luciferase-expressing SW620 xenografts treated with SH-BC-893; type: in vivo, mice; conditions: for SW620 tumors by bioluminescence imaging, caliper measurements and tumor mass at sacrifice: luciferase-expressing SW620 xenografts in mice, SH-BC-893 20 mg/kg i.p.
Description: In many embodiments, exemplary experimentation was carried out to determine whether azacyclic constrained sphingolipid-lipid molecules inhibited neoplastic growth in vivo. To carry out this experimentation, luciferase-expressing SW620 xenografts were generated in mice.
In vivo studies. Experiments conducted in mice were performed in accordance with the Institutional Animal Care and Use Committee of University of California, Irvine following a power analysis conducted in consultation with the Biostatistics Shared Resource of Chao Family Comprehensive Cancer Center at UCI. Xenografts were produced by injecting 5 million cells subcutaneously in the flank of 10-16 week-old male or female NSG mice. Prostate isografts were produced in the same manner but in male 6-8 wk old C57BL/6 mice. Once tumors reached 100 mm^3, SH-BC-893 was administered by intraperitoneal (i.p.) injection or oral gavage as indicated. Tumor volume was calculated using the formula, volume (mm^3)=length [mm]×(width [mm])^2×0.52; BLI was measured using an IVIS imaging system (Xenogen). To generate pDKO mice on the C57BL6 background, Pten^flox mice (stock No. 0045597) and p53^flox mice (stock No. 008462) were obtained from the Jackson Laboratory and PB-Cre4 mice (strain #01XF5) were obtained from the NCI-Frederick Mouse Repository. Age-matched cohorts of pDKO males were generated by in vitro fertilization executed with the assistance of the Transgenic Mouse Facility at UC Irvine. Treatment was begun at 6-7 wks of age. […] Tumor samples were processed and imaged by the Pathology Research Services Core Facility at UC Irvine. Blood chemistry was analyzed by IDEXX BioResearch and complete blood counts were performed using a Hemavet hematology system.

S1P receptor 2 = molecular target: T1, S1P receptor 2 (Homo sapiens, UniProt O95136); experiment: S1P receptor activation in CHO cells, S1P2; type: cell-based; conditions: CHO cells over-expressing human S1P2
T1 construct: expressed in transfected cells
T1 sequence (O95136 whole entry): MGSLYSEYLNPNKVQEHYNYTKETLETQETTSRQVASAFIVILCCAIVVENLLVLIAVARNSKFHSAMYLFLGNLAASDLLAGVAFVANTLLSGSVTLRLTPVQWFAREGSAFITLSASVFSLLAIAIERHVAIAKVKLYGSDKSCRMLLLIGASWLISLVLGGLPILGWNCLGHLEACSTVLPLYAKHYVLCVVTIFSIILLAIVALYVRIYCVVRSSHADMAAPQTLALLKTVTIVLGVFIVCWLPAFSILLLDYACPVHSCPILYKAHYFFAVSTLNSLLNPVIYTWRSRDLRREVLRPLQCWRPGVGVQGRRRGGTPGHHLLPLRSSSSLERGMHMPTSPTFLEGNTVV
From the text: Phosphorylation may have effects on S1P receptor activity that could cause bradycardia. Bradycardia, the dose-limiting toxicity that prevents the use of FTY720 in cancer patients, stems from FTY720-P's actions on S1P receptors 1 and 3. (Camm, J., et al. (2014) Am. Heart J. 168, 632-644; Cohen, J. A., Chun, J. (2011) Ann. Neurol. 69, 759-777; Sanna, M. G., et al. (2004) J. Biol. Chem. 279, 13839-13848; the disclosures of which are incorporated herein by reference). Phosphorylation by sphingosine kinase may make compounds competent to activate S1P receptors. FTY720, for example, when phosphorylated is known to activate S1P receptors 1 and 3. Because compound 5 could be phosphorylated, the activity of compound 5 and its phosphate 5-P (FIG. 28) on S1P receptors was evaluated (FIG. 32).
51P1-5 activation: Chinese hamster ovary (CHO) cells stably over-expressing the different human 51P receptor subtypes are used. S1P1, S1P4 and S1P5 overexpressing CHO cells are cultured in medium containing alpha-MEM supplemented with 10% FBS, 50 μg/ml gentamycin and 0.5 mg/ml G418. S1P2 and S1P3 overexpressing CHO cells are cultured in RPMI containing 10% FBS, 50 μg/ml gentamycin and 0.5 mg/ml G418. Prior to stimulation, cells are rendered serum-free for 24 h. Stimulation is carried out for 10 min in serum-free DMEM containing 0.1 mg/ml of fatty-acid free BSA in the absence or presence of the various compounds or 51P. Protein lysates are prepared using a buffer containing (50 mM Tris pH 7.4, 150 mM NaCl, 10% glycerol, 1% Triton X-100, 2 mM EDTA, 2 mM EGTA, 40 mM β-glycerophosphate, 50 mM sodium fluoride, 10 mM sodium pyrophosphate, 2 mM dithiothreitol, 0.2 mM sodium orthovanadate). Cells are homogenized by one 5 sec burst in a MSE Ultrasonic Disintegrator, centrifuged and taken for protein determination. Equal amounts of protein are separated by SDS-PAGE (10% polyacrylamide gel), transferred to nitrocellulose membranes and subjected to Western blot analysis. Bands were stained using IRDye® secondary antibodies and visualized by the LICOR Odyssey® Fc Imaging system. Antibodies against phospho-Thr202/Tyr204-p42/p44-MAPK and phospho-Ser PKC substrate are from Cell Signaling, Frankfurt am Main, Germany. Polyclonal antisera against total p42 and total p44 were generated and characterized as previously described. (Huwiler, A.; Pfeilschifter, J. Br. J. Pharmacol. 1994, 113, 1455-1463; disclosure of which is incorporated herein by reference).

[3] = system: 4F2 cell-surface antigen heavy chain (4F2hc); experiment: Surface 4F2hc nutrient transporter expression; type: cell-based, human; conditions: treatment at IC50 and at twice this dose, 6 h; efficacy similar to FTY720
From the text: The broad activity of the embodiments of the inventions described herein is consistent with a bioenergetic mechanism of action against cancer cells that includes nutrient transporter down-regulation, as described supra. Thus, to directly examine the constrained pyrrolidine sphingolipid-like molecules on nutrient transport, the surface-levels of the amino acid transporter associated protein 4F2 cell-surface antigen heavy chain (4F2hc) was examined following treatment with several analogues at their IC50 and at twice this dose.
Nutrient transporter expression: Surface 4F2hc expression is measured at 6 h using phycoerythrin (PE)-conjugated mouse anti-human 4F2hc antibody (BD Pharmingen, cat #556077); analysis is restricted to viable cells. PE conjugated Mouse IgG1, k (cat #555749, BD Pharmingen) is used as an isotype control. Cells are analyzed on a BD LSR II flow cytometer and with FlowJo software (Treestar).

Row | SMILES | IC50 [1] | SW620 tumors by bioluminescence imaging, caliper measurements and tumor mass at sacrifice [2] | activation of S1P receptor 2 (S1P receptor 2) | 4F2hc surface levels [3] | body weight of treated mice ([2]; SW620 xenograft mice)
1 | CCCCCCCCc1ccc(CCC(N)(CO)CO)cc1.Cl [FTY720, 2-Amino-2-[2-(4-octylphenyl)ethyl]propane 1,3-diol hydrochloride, reference compound] | 2.4 µM | reduced to a similar degree |  |  | 
2 | CCCCCCCCc1ccc([C@@H]2CCN[C@H]2CO)cc1.Cl [Compound 6] |  |  | failed to activate | reduced 4F2hc surface levels | 
3 | CCCCCCCCc1ccc([C@H]2CCN[C@@H]2CO)cc1.Cl [Compound 5, (2S,3R)-2-(hydroxymethyl)-3-(4-octylphenyl)Pyrrolidinium chloride] | 1.9 µM | reduced to a similar degree | failed to activate | reduced 4F2hc surface levels | Mild weight loss
